Measurements from patent US5441941A, “1,2-dihydroellipticines with activity against CNS specific cancer” (The United States of America as represented by the …, priority 1993, dated 1995).

What was measured:
[1] = system: LXFL 529; assay: cells; settings: Homo sapiens
[2] = system: UACC-257; assay: NCI in vitro screen, SRB percent growth, Melanoma
[3] = system: SK-OV-3; assay: NCI in vitro screen, SRB percent growth, Ovarian Cancer
[4] = system: SF-295; assay: NCI in vitro screen, SRB percent growth, CNS Cancer
[5] = system: RXF-631; assay: NCI in vitro screen, SRB percent growth, Renal Cancer
[6] = system: XF 498; assay: NCI in vitro screen, SRB percent growth, CNS Cancer
[7] = system: A549/ATCC; assay: NCI in vitro screen, SRB percent growth, Non-Small Cell Lung Cancer
[8] = system: KM12; assay: NCI in vitro screen, SRB percent growth, Colon Cancer
[9] = LXFL 529, read-out: Percent Growth
[10] = Log10 Concentration -4.0, 100 µM
[11] = Log10 Concentration -7.0, 0.1 µM

## COc1ccc2[nH]c3c(C)c4c(c(C)c3c2c1)CN(C)C=C4 [Formula VII]
[1]; LXFL 529
  GI50: 0.129 µM
[1]; LXFL 529, read-out: LC-50
  CC50: 29.1 µM
[1]; [9]
  activity at 0.01 µM: 66%
  activity at 0.1 µM: 54%
  activity at 1 µM: 14%
  activity at 10 µM: -38%
  activity at 100 µM: -64%
[1]; LXFL 529, read-out: TGI
  IC (TGI): 1.88 µM
[2]; [10]
  Percent Growth: -5%
[2]; Log10 Concentration -6.0, 1 µM
  Percent Growth: 108%
[2]; [11]
  Percent Growth: 113%
[2]; Log10 Concentration -8.0
  Percent Growth: 110%
[2]; PG=0
  TGI: 80.7 µM
[2]; PG=+50
  GI50: 9.63 µM
[2]; read-out: LC-50, PG=-50
  CC50: > 100 µM
[3]; [10]
  Percent Growth: -23%
[3]; Log10 Concentration -5.0
  Percent Growth: 148%
[3]; Log10 Concentration -6.0, 1 µM
  Percent Growth: 167%
[3]; [11]
  Percent Growth: 159%
[3]; Log10 Concentration -8.0
  Percent Growth: 192%
[3]; PG=0
  TGI: 73.4 µM
[3]; PG=+50
  GI50: 73.4 µM
[3]; read-out: LC-50, PG=-50
  CC50: > 100 µM
[4]; [10]
  Percent Growth: -51%
[4]; Log10 Concentration -5.0
  Percent Growth: -30%
[4]; Log10 Concentration -6.0, 1 µM
  Percent Growth: 11%
[4]; [11]
  Percent Growth: 65%
[4]; Log10 Concentration -8.0
  Percent Growth: 88%
[4]; PG=0
  TGI: 1.89 µM
[4]; PG=+50
  GI50: 0.191 µM
[4]; read-out: LC-50, PG=-50
  CC50: 89.5 µM
[5]; [10]
  Percent Growth: -29%
[5]; Log10 Concentration -5.0
  Percent Growth: 18%
[5]; Log10 Concentration -6.0, 1 µM
  Percent Growth: 38%
[5]; [11]
  Percent Growth: 83%
[5]; Log10 Concentration -8.0
  Percent Growth: 106%
[5]; PG=0
  TGI: 24.3 µM
[5]; PG=+50
  GI50: 0.536 µM
[5]; read-out: LC-50, PG=-50
  CC50: > 100 µM
[6]; [10]
  Percent Growth: -60%
[6]; Log10 Concentration -5.0
  Percent Growth: -25%
[6]; Log10 Concentration -6.0, 1 µM
  Percent Growth: 81%
[6]; [11]
  Percent Growth: 140%
[6]; Log10 Concentration -8.0
  Percent Growth: 174%
[6]; PG=0
  TGI: 5.82 µM
[6]; PG=+50
  GI50: 1.97 µM
[6]; read-out: LC-50, PG=-50
  CC50: 52.7 µM
[7]; [10]
  Percent Growth: -26%
[7]; Log10 Concentration -5.0
  Percent Growth: 10%
[7]; Log10 Concentration -6.0, 1 µM
  Percent Growth: 51%
[7]; [11]
  Percent Growth: 87%
[7]; Log10 Concentration -8.0
  Percent Growth: 102%
[7]; PG=0
  TGI: 19.2 µM
[7]; PG=+50
  GI50: 1.05 µM
[7]; read-out: LC-50, PG=-50
  CC50: > 100 µM
[8]; [10]
  Percent Growth: -86%
[8]; Log10 Concentration -6.0, 1 µM
  Percent Growth: 28%
[8]; [11]
  Percent Growth: 59%
[8]; Log10 Concentration -8.0
  Percent Growth: 78%
[8]; PG=0
  TGI: 2.32 µM
[8]; PG=+50
  GI50: 0.194 µM
[8]; read-out: LC-50, PG=-50
  CC50: 10.6 µM
